Here are results for twelve compounds from paper PMC5608272 (PLoS ONE, 2017).

Structures are written as SMILES. pIC50, pKd: −log10 of the molar value. Read-outs that look alike come from different tables or passages of the source.

Series [1] has as its system dsDNA-induced IFN-beta expression. The series can be described thus: Cellular cGAS assay: dsDNA-induced IFN-beta expression via luciferase reporter in THP-1 Dual cells. Format: cell-based, human. The method, then:
(§1) Cellular Assays. THP-1 Dual monocytes cells containing NF-κB-SEAP and IRF-Luc Reporter (InvivoGen cat # thpd-nfis) were plated at 1x10^5 cells/well in U bottom 96 well plates in 100μL RPMI media containing10% FBS. Tested compounds were diluted in 100% DMSO to stock concentration of 30 mM. The TBK1 inhibitor BX-795 was obtained from Sigma-Aldrich (cat#SML0694-5MG) and used as a positive control. Cells were pretreated with DMSO or compounds for 1 hr at room temperature, followed by Lipofectamine™ 2000 (Thermo Fisher cat# 11668027) transfection with salmon sperm DNA (InvivoGen cat# tlrl-sdef) at 100 ng/well. Cells were incubated for 12 hrs at 37 ^◦C in a 5% CO2 incubator followed by centrifugation at 1000 rpm for 5 min. Media was collected and Lucia luciferase was measured using Quanti-Luc substrate (InvivoGen cat# rep-qlc1) according to the manufacturer’s protocol. Viability of cells was assessed using Promega CellTiter Glo luminescent viability assay (Promega cat# G7570) according to the manufacturer’s protocol. All data points were normalized to the salmon sperm DNA-treated wells (without compound) and expressed as percent of signal.
(A reporter such as luciferase makes a cellular process visible.)

Series [2] addresses T1, cGAS (Homo sapiens, UniProt Q8N884). The series can be described thus: SPR binding to immobilized cGAS. The following applies: for pKd: absence of activating dsDNA, 4 °C. As to the method: SPR assays. SPR experiments were performed using NTA sensor chips in a BIACORE T200 (GE Healthcare). cGAS was immobilized to a final density ca 5000-10000 RU. Sample-dependent responses were subtracted from channel 1, which had neither Ni or protein immobilized on it. Data were further corrected by subtracting a zero-concentratio blank from all compounds. Compounds were injected for 30-60 s, dissociation was measured for 30-120 s at 60 μL/min, 4 °C. Experiments were performed in buffer contained 20 mM HEPES (pH 7.5), 150 mM KCl, 20 mM MgCl2, 1 mM TCEP and 1% DMSO. Samples were injected with a top concentration, followed by 2-fold dilutions, and a final blank over 12 injection points. […] Dissociation equilibrium constants (KD) were determined using a binary association model (T200 BIA Eval software).
Target sequence in this assay (Q8N884 whole entry): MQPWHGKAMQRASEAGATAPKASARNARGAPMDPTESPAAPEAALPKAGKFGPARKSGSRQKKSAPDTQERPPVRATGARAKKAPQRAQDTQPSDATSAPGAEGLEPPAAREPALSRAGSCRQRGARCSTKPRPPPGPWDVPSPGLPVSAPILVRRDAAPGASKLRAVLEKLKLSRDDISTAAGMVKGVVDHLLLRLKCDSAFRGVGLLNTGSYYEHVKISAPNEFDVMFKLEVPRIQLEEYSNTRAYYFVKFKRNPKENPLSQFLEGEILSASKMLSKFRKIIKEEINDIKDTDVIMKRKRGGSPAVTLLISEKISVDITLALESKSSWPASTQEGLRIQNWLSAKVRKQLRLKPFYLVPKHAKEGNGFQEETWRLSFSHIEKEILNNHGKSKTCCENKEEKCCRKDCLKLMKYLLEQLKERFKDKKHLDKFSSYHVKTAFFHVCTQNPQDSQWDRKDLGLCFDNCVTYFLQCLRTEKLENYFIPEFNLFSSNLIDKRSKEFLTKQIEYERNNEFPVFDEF

The target of series [3] is T1, cGAS. The series can be described thus: Cy5-cGAMP fluorescence polarization assay of cGAS activity. Format: biochemical. Also noted: Amino acids 2-522 of human MB21D1 (Uniprot ID: Q8N884); made in house; host or cells: Spodoptera frugiperda Sf-9 (baculovirus). In general terms: Fluorescence polarisation rises when a labelled molecule tumbles more slowly, as on binding a larger partner.
Target sequence in this assay (Q8N884 2-522): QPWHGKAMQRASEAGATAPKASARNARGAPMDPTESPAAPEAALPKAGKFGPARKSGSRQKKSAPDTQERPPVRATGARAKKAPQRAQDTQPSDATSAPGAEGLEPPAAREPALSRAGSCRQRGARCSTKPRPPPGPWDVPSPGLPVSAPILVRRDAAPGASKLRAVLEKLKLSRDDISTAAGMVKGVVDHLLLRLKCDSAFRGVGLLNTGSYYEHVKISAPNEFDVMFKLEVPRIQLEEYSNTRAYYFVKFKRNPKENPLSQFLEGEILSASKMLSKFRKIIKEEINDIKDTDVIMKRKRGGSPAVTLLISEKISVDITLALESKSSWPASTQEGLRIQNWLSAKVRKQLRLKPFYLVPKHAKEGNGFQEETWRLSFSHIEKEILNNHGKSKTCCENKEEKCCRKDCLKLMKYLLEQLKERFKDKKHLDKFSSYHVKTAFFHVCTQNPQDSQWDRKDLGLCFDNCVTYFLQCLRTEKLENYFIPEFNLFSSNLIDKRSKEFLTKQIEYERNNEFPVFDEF

The target in the next series is T2, Human cGAS (aa 2–522) (Homo sapiens, UniProt Q8N884).
T2 construct: Amino acids 2-522 of human MB21D1 (Uniprot ID: Q8N884); made in house; host or cells: Spodoptera frugiperda Sf-9 (baculovirus)
The series can be described thus: cGAS activity mass spectrometry assay (cGAMP production by LC-MS). The following applies: for Km: other nucleotide fixed: ATP 1 mM, GTP 300 μM, read-out: apparent Km; for effect of metals on cGAS activity: 1 nM cGAS, 1 nM dsDNA, in words. The class given is biochemical. The method, then:
cGAS activity was measured in buffer (10 mM Hepes, 140 mM NaCl, 0.01% Tween-20, 5 mM MgCl2, pH 7.5) containing 1 mM ATP, 0.3 mM GTP, 100 nM ISD DNA (45 bp dsDNA), and 100 nM cGAS in the presence or absence of test compounds. […] The reaction was incubated for 30 minutes at 37°C and stopped with the addition of 50 mM EDTA. […] An earlier version of the assay utilized the same buffer and nucleotide conditions but was conducted in the presence of 1 nM cGAS, 1 nM ISD DNA and carried out for 6 h at 37°C before being processed as described above.
50 μl of H2O was added to each 25 μl cGAS reaction (384 well format). The samples were mixed by briefly vortexing followed by a 10 min, 3000 g centrifugation at room temperature. […] 10 μl of sample was injected on to a 2x30 mm hypercarb column (Thermo Scientific) kept at 60°C with a flow rate of 0.8 ml/min and a loop sweep time of 20 s. Mobile phase A consisted of 10 mM Ammonium Acetate, pH 10, and Mobile phase B consisted of 90:10 (Acetonitrile:Acetone 1:1): 10 mM Ammonium Acetate pH 10 + 0.1% formic acid. […] ATP and GTP had the following optimized parameters: dp 99 ep 10 ce 64 cxp 10. […] The data was processed using Sciex's Multiquant 3.0.

The next series relates to THP-1 Dual cells. The series can be described thus: Cell viability, CellTiter Glo, THP-1 Dual cells. As to conditions: in words. The class given is cell-based, human. As to the method: as §1
On the technique in general: Cellular ATP, detected with luciferase, serves as a proxy for viable cell number.

Series [4] is described as follows: Chemical stability observed on resynthesis. The class given is physicochemical. The following applies: upon attempted resynthesis, in words.
In a further series the target is T3, truncated h-cGAS (Homo sapiens, UniProt Q8N884).
T3 construct: a previously crystalized cGAS construct beginning at residue 161 (cGAS161) (H. sapiens numbering)
The series can be described thus: STD 1H NMR cGAMP competition binding on truncated h-cGAS. The following applies: mixture with 2´,3´-cGAMP, in words.

For a further series, the system named is mAb 80–2. The series can be described thus: Competition ELISA, mAb 80–2 binding to BSA-cGAMP. The arrangement: species or system mouse. The following applies: preincubated 1 hr; ATP, GTP at mM concentrations; in words. As to the method:
After washing, plates were developed with substrate, the reaction was stopped with 2 N H2SO4 and OD was read at 450 nm. […] After incubation for 1 hr, plates were washed, incubated with secondary antibody, and developed as described above.

Where [5] appears, read: 1 mM ATP, 0.3 mM GTP, 100 nM ISD DNA, 100 nM cGAS, read-out: FP IC50.
The mark [6] stands for this setting: 1 mM ATP, 0.3 mM GTP, 100 nM ISD DNA, 100 nM cGAS, read-out: MS IC50.

T2 sequence (Q8N884 2-522): as above
T3 sequence (Q8N884 161-522 limits assumed): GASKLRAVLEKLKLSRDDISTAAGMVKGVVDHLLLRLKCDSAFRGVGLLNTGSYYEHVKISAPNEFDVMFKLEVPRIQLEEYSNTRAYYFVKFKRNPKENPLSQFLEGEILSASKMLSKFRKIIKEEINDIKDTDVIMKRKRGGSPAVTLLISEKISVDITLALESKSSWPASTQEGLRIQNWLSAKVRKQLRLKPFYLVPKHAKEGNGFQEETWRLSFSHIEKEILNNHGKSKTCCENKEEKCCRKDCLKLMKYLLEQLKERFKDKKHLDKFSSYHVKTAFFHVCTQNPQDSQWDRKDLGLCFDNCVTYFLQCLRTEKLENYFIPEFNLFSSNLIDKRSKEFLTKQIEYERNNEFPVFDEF
Procedure for truncated h-cGAS: Nuclear Magnetic Resonance (NMR). All NMR spectra were collected on a Bruker Avance III series 600 MHz spectrometer equipped with a 1.7 mm micro cryoprobe. For fragment screening, the Pfizer fragment library (~3,200 fragments) was screened against 3 μM truncated h-cGAS in 20 mM hepes (pH 7.5) buffer containing 150 mM KCl and 1 mM TCEP, and no DNA. The concentration of each fragment was 300 µM, and each sample contains either five or ten fragments in the mixture. Saturation transfer difference (STD) spectra for each fragment mixture were collected and binders were identified by comparing their STD signals with 1D reference spectra of the fragments in the mixture.

On to `O=C(NCCCNc1nc(Nc2cccc(NC(=O)N3CCCC3)c2)ncc1I)c1cccs1` [BX-395, reference compound], for which, in series [1] (Homo sapiens, THP1-Dual, positive control, read-out: IC50, inhibition of IFN-β induction), the pIC50 (usually the IC50 on a negative log10 scale, so that one unit is a factor of ten) was about 7.22.

`C[C@@H](CO)NC(=O)c1cnn2c(=O)cc(-c3ccccc3)[nH]c12` [Compound 19, (S)-N-(1-hydroxypropan-2-yl)-7-oxo-5-phenyl-4,7-dihydropyrazolo[1,5-a]pyrimidine-3-carboxamide]: the negative-log Kd (pKd) (commonly the negative decadic logarithm of the Kd, by convention in mol/L) at cGAS [2] was 5.57. Besides, the negative logarithm of the IC50 (pIC50) on cGAS [3] (setting [5]) was 4.76; on Human cGAS (aa 2–522) (setting [6]), 5.09.

For the compound `O=C(N[C@H]1CCCC[C@H]1C(=O)O)c1cnn2c(=O)cc(-c3ccccc3)[nH]c12` [PF-06928215, (1R,2S)-2-(7-oxo-5-phenyl-4,7-dihydropyrazolo[1,5-a]pyrimidine-3 carboxamido) cyclohexane-1-carboxylic acid], at cGAS [2] (SPR sensorgram, in words), the off rate kinetics result was “longer off rate kinetics than any other compound in this series”. The “effect on cell viability” value in the series on THP-1 Dual cells is listed as “minimal effect on cell viability”. Also, the “activity on dsDNA-induced IFN-beta expression” value in series [1] (salmon sperm DNA 12 hrs, in words) is given as “no activity”.

Regarding `Oc1cc(-c2ccccc2)nc2nnnn12` [Compound 15], the pKd at cGAS [2] is 3.77. In series [4], the chemical stability entry is “not chemically stable and readily isomerizes via an open-ring azidopyrimidine”. In addition, the “competition with 2´,3´-cGAMP for interacting with cGAS (1H STD)” value at truncated h-cGAS is “out competed 2´,3´-cGAMP”.

`Nc1ncnc2c1ncn2[C@@H]1O[C@H](COP(=O)(O)OP(=O)(O)OP(=O)(O)O)[C@@H](O)[C@H]1O` [ATP]: at Human cGAS (aa 2–522), the Km – broadly, the concentration of substrate that gives half-maximal velocity – was 35 µM. Further, in the series on mAb 80–2, the “inhibition of mAb 80–2 binding to BSA-cGAMP” value was “neither ATP nor GTP at mM concentrations inhibited the binding”.

`O=C(NCCO)c1cnn2c(=O)cc(-c3ccccc3)[nH]c12` [Compound 17, N-(2-hydroxyethyl)-7-oxo-5-phenyl-4,7-dihydropyrazolo[1,5-a]pyrimidine-3-carboxamide] gave a pKd at cGAS [2] of 4.90. Further, the pIC50 on cGAS [3] (setting [5]) is 4.82; on Human cGAS (aa 2–522) (setting [6]), 4.72.

On to `[Cu][Br]` [copper, CuBr], for which the “effect of metals on cGAS activity” value at Human cGAS (aa 2–522) is on record as “very sensitive to inhibition”.

The compound `O=C(O)CNC(=O)c1cnn2c(=O)cc(-c3ccccc3)[nH]c12` [Compound 18, (7-oxo-5-phenyl-4,7-dihydropyrazolo[1,5-a]pyrimidine-3-carbonyl)glycine] gave a pKd on cGAS [2] of 5.17. The negative-log IC50 (pIC50) on cGAS [3] is 4.97; on Human cGAS (aa 2–522), 4.68.

On to `[Cl-].[Cl-].[Zn+2]` [zinc, ZnCl2], for which the “effect of metals on cGAS activity” value on Human cGAS (aa 2–522) was “increased enzymatic activity”.

Turning to `Nc1nc2c(ncn2[C@@H]2O[C@H](COP(=O)(O)OP(=O)(O)OP(=O)(O)O)[C@@H](O)[C@H]2O)c(=O)[nH]1` [GTP], the Km at Human cGAS (aa 2–522) is 30 µM. Moreover, the “inhibition of mAb 80–2 binding to BSA-cGAMP” value with mAb 80–2 is recorded as “neither ATP nor GTP at mM concentrations inhibited the binding”.

For the compound `CC(=O)[O-].CC(=O)[O-].[Pd+2]` [palladium, Pd(OAc)2], the “effect of metals on cGAS activity” value on Human cGAS (aa 2–522) was “very sensitive to inhibition”.

On cGAS [2], `CNC(=O)c1cnn2c(=O)cc(-c3ccccc3)[nH]c12` [Compound 16, N-methyl-7-oxo-5-phenyl-4,7-dihydropyrazolo[1,5-a]pyrimidine-3-carboxamide] showed a pKd of 4.11. The pIC50 at cGAS [3] (setting [5]) was 3.90; on cGAS [3] (text summary of Fig 3, spans MS and FP assay values, read-out: IC50, inhibition of cGAS functional activity), 3.90 to 4.16; on Human cGAS (aa 2–522) (setting [6]) it was 4.16.
